EC50 data for 33 molecules are collected here from patent US10351547B2, “Somatostatin modulators and uses thereof” (priority 2016, dated 2019).

Bounds are passed on as bounds.

What is called EC50 is the concentration giving half of the maximal effect.

Sequence of human SSTR2 (P30874 whole entry): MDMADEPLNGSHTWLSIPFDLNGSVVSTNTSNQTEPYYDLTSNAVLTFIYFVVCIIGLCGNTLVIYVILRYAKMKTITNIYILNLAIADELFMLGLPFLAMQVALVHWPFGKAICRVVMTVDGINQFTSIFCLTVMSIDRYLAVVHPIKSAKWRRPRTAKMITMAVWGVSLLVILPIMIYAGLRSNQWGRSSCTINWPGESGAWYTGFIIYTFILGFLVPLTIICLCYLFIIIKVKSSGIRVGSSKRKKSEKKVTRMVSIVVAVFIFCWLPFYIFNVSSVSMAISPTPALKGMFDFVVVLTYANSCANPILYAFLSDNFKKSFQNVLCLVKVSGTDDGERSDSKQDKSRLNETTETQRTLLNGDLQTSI

One assay has as its target human SSTR2 (Homo sapiens (Human), UniProt P30874). Description: Human SSTR2 intracellular cAMP functional assay for agonists (HTRF). The class given is cell-based.
Details: not given
The essentials: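 Cells bearing human SSTR2 exposed to compound for 20 minutes at 37 °C; after lysis, cAMP measured by time-resolved fluorescence (HTRF) and converted via a standard curve. EC50 calculated from cAMP versus compound concentration.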
(TR-FRET usually uses a lanthanide donor and a delayed reading to cut background.)
`NC1CCN(c2c(-c3cc(F)cc(F)c3)cnc3ccc(-c4cc(Cl)c5[nH]c(=O)[nH]c5c4)cc23)CC1` [2-141, 6-[4-(4-aminopiperidin-1-yl)-3-(3,5-difluorophenyl)quinolin-6-yl]-4-chloro-2,3-dihydro-1H-1,3-benzodiazol-2-one] registered an EC50 of 10 to 100 nM. The molecule `N#Cc1cc(Cl)c(F)c(-c2ccc3ncc(-c4cc(F)cc(F)c4)c(N4CCC(N)CC4)c3c2)c1O` [2-147, 3-[4-(4-aminopiperidin-1-yl)-3-(3,5-difluorophenyl)quinolin-6-yl]-5-chloro-4-fluoro-2-hydroxybenzonitrile] displayed an EC50 of 10 to 100 nM. Molecule `COc1cc(F)cc(-c2cnc3ccc(-c4cccc(F)c4NC(=O)N4CCC4)cc3c2N2CCC(N)CC2)c1` [2-175, N-{2-[4-(4-aminopiperidin-1-yl)-3-(3-fluoro-5-methoxyphenyl)quinolin-6-yl]-6-fluorophenyl}azetidine-1-carboxamide] came in with an EC50 of 10 to 100 nM.

The assay is the same for the next values; noted with them: CHO-K1 cells stably expressing human SSTR2; NKH477-stimulated cAMP; read-out: EC50 (inhibition of cAMP activities via human SST2R).
With `CONC(=O)Nc1c(F)cc(F)cc1-c1ccc2ncc(-c3cc(F)cc(F)c3)c(N3CCC(N)CC3)c2c1` [2-139, 1-{2-[4-(4-aminopiperidin-1-yl)-3-(3,5-difluorophenyl)quinolin-6-yl]-4,6-difluorophenyl}-3-methoxyurea], the EC50 was less than 10 nM. For `NC1CCN(c2c(-c3cc(F)cc(F)c3)cnc3ccc(-c4ccc5oc(=O)[nH]c5c4)cc23)CC1` [2-142, 5-[4-(4-aminopiperidin-1-yl)-3-(3,5-difluorophenyl)quinolin-6-yl]-2,3-dihydro-1,3-benzoxazol-2-one], the EC50 was less than 10 nM. As to `N#Cc1cccc(-c2ccc3ncc(-c4cc(F)cc(F)c4)c(N4CC[C@@H](N)[C@H](C(=O)O)C4)c3c2)c1O` [2-145], the EC50 fell in the range of 100 to 1000 nM. Take `COC(=O)Nc1c(C#N)cccc1-c1ccc2ncc(-c3cc(F)cc(F)c3)c(N3CCC(N)CC3)c2c1` [2-148, methyl N-{2-[4-(4-aminopiperidin-1-yl)-3-(3,5-difluorophenyl)quinolin-6-yl]-6-cyanophenyl}carbamate]: the EC50 is less than 10 nM. As for `NC1CCN(c2c(-c3cc(F)cc(F)c3)cnc3ccc(-c4c(O)c(F)cc(F)c4F)cc23)CC1` [2-150, 2-[4-(4-aminopiperidin-1-yl)-3-(3,5-difluorophenyl)quinolin-6-yl]-3,4,6-trifluorophenol], the EC50 is less than 10 nM. With `NC1CCN(c2c(-c3cc(F)cc(F)c3)cnc3ccc(-c4cncc(F)c4C=NO)cc23)CC1` [2-152, 1-[3-(3,5-difluorophenyl)-6-{5-fluoro-4-[(hydroxyimino)methyl]pyridin-3-yl}quinolin-4-yl]piperidin-4-amine], the EC50 is less than 10 nM.

Take `CONC(=O)Nc1c(F)cc(F)cc1-c1ccc2ncc(-c3cc(F)cc(OC)c3)c(N3CCC(N)CC3)c2c1` [2-164, 1-{2-[4-(4-aminopiperidin-1-yl)-3-(3-fluoro-5-methoxyphenyl)quinolin-6-yl]-4,6-difluorophenyl}-3-methoxyurea]: the EC50 is less than 10 nM.

For `COC(=O)Nc1c(F)cc(F)cc1-c1ccc2ncc(-c3cc(F)cc(OC)c3)c(N3CCC(N)CC3)c2c1` [2-165, methyl N-{2-[4-(4-aminopiperidin-1-yl)-3-(3-fluoro-5-methoxyphenyl)quinolin-6-yl]-4,6-difluorophenyl}carbamate], the half-maximal effective concentration (EC50) is less than 10 nM. `COc1cc(F)cc(-c2cnc3ccc(-c4cccc(F)c4C=NO)cc3c2N2CCC(N)CC2)c1` [2-166, 1-(6-{3-fluoro-2-[(hydroxyimino)methyl]phenyl}-3-(3-fluoro-5-methoxyphenyl)quinolin-4-yl)piperidin-4-amine]: the EC50 is less than 10 nM. Same read-out and setting: in the case of `COC(=O)Nc1c(C#N)cccc1-c1ccc2ncc(-c3cc(F)cc(OC)c3)c(N3CCC(N)CC3)c2c1` [2-167, methyl N-{2-[4-(4-aminopiperidin-1-yl)-3-(3-fluoro-5-methoxyphenyl)quinolin-6-yl]-6-cyanophenyl}carbamate] it was less than 10 nM; in that of `Cc1cc(F)cc(-c2cnc3ccc(-c4cncc(F)c4C=NO)cc3c2N2CCC(N)CC2)c1` [2-168, 1-(6-{5-fluoro-4-[(hydroxyimino)methyl]pyridin-3-yl}-3-(3-fluoro-5-methylphenyl)quinolin-4-yl)piperidin-4-amine], less than 10 nM.

For `Cc1cc(F)cc(-c2cnc3ccc(-c4cncc(F)c4N)cc3c2N2CCC(N)CC2)c1` [2-169, 3-[4-(4-aminopiperidin-1-yl)-3-(3-fluoro-5-methylphenyl)quinolin-6-yl]-5-fluoropyridin-4-amine], the EC50 is less than 10 nM. As for `CONC(=O)Nc1c(F)cncc1-c1ccc2ncc(-c3cc(C)cc(F)c3)c(N3CCC(N)CC3)c2c1` [2-172, 1-{3-[4-(4-aminopiperidin-1-yl)-3-(3-fluoro-5-methylphenyl)quinolin-6-yl]-5-fluoropyridin-4-yl}-3-methoxyurea], the EC50 was less than 10 nM.

Consider `COC(=O)Nc1c(F)cccc1-c1ccc2ncc(-c3cc(F)cc(OC)c3)c(N3CCC(N)CC3)c2c1` [2-173, methyl N-{2-[4-(4-aminopiperidin-1-yl)-3-(3-fluoro-5-methoxyphenyl)quinolin-6-yl]-6-fluorophenyl}carbamate], for which the EC50 was less than 10 nM.

As to `CONC(=O)Nc1c(F)cccc1-c1ccc2ncc(-c3cc(F)cc(OC)c3)c(N3CCC(N)CC3)c2c1` [2-174, 1-{2-[4-(4-aminopiperidin-1-yl)-3-(3-fluoro-5-methoxyphenyl)quinolin-6-yl]-6-fluorophenyl}-3-methoxyurea], the EC50 is less than 10 nM.

Turning to `NC1CCN(c2c(-c3cc(F)cc(C(F)(F)F)c3)cnc3ccc(-c4cncc(F)c4C=NO)cc23)CC1` [2-176, 1-(6-{5-fluoro-4-[(hydroxyimino)methyl]pyridin-3-yl}-3-[3-fluoro-5-(trifluoromethyl)phenyl]quinolin-4-yl)piperidin-4-amine], the EC50 is less than 10 nM. For the molecule `N#Cc1cncc(-c2ccc3ncc(-c4cc(F)cc(F)c4)c(N4CCC(N)CC4)c3c2)c1N` [2-177, 4-amino-5-[4-(4-aminopiperidin-1-yl)-3-(3,5-difluorophenyl)quinolin-6-yl]pyridine-3-carbonitrile], the 50% effective concentration (EC50) was less than 10 nM. Still for that read-out and setting: for `Cc1cc(F)cc(-c2cnc3ccc(-c4cc(F)cnc4N)cc3c2N2CCC(N)CC2)c1` [2-178, 3-[4-(4-aminopiperidin-1-yl)-3-(3-fluoro-5-methylphenyl)quinolin-6-yl]-5-fluoropyridin-2-amine] the value was less than 10 nM; for `N#Cc1cc(F)c(F)c(-c2ccc3ncc(-c4cc(F)cc(F)c4)c(N4CCC(N)CC4)c3c2)c1N` [2-179, 2-amino-3-[4-(4-aminopiperidin-1-yl)-3-(3,5-difluorophenyl)quinolin-6-yl]-4,5-difluorobenzonitrile], less than 10 nM; for `COC(=O)Nc1c(C#N)cc(F)c(F)c1-c1ccc2ncc(-c3cc(F)cc(F)c3)c(N3CCC(N)CC3)c2c1` [2-180, methyl N-{2-[4-(4-aminopiperidin-1-yl)-3-(3,5-difluorophenyl)quinolin-6-yl]-6-cyano-3,4-difluorophenyl}carbamate], less than 10 nM.

Regarding `Cc1cc(F)cc(-c2cnc3ccc(-c4cncc(Cl)c4N)cc3c2N2CCC(N)CC2)c1` [2-181, 3-[4-(4-aminopiperidin-1-yl)-3-(3-fluoro-5-methylphenyl)quinolin-6-yl]-5-chloropyridin-4-amine], the EC50 is less than 10 nM.

On to `CONC(=O)Nc1ncc(F)cc1-c1ccc2ncc(-c3cc(C)cc(F)c3)c(N3CCC(N)CC3)c2c1` [2-183, 1-{3-[4-(4-aminopiperidin-1-yl)-3-(3-fluoro-5-methylphenyl)quinolin-6-yl]-5-fluoropyridin-2-yl}-3-methoxyurea], for which the EC50 is less than 10 nM.

As for `COC(=O)Nc1c(Cl)cncc1-c1ccc2ncc(-c3cc(C)cc(F)c3)c(N3CCC(N)CC3)c2c1` [2-184, methyl N-{3-[4-(4-aminopiperidin-1-yl)-3-(3-fluoro-5-methylphenyl)quinolin-6-yl]-5-chloropyridin-4-yl}carbamate], the EC50 was less than 10 nM. The same measure, in the same setting: for `COC(=O)Nc1ccc(C#N)cc1-c1ccc2ncc(-c3cc(F)cc(F)c3)c(N3CCC(N)CC3)c2c1` [2-185] the value was less than 10 nM; for `CONC(=O)Nc1c(Cl)cncc1-c1ccc2ncc(-c3cc(C)cc(F)c3)c(N3CCC(N)CC3)c2c1` [2-186, 1-{3-[4-(4-aminopiperidin-1-yl)-3-(3-fluoro-5-methylphenyl)quinolin-6-yl]-5-chloropyridin-4-yl}-3-methoxyurea], less than 10 nM; for `Cc1cc(F)cc(-c2cnc3ccc(-c4cncc(C#N)c4N)cc3c2N2CCC(N)CC2)c1` [2-187, 4-amino-5-[4-(4-aminopiperidin-1-yl)-3-(3-fluoro-5-methylphenyl)quinolin-6-yl]pyridine-3-carbonitrile], less than 10 nM. Regarding `Cn1ncc(-c2ccc3ncc(-c4cc(F)cc(F)c4)c(N4CCC(N)CC4)c3c2)c1C=NO` [2-188, 1-[3-(3,5-difluorophenyl)-6-{5-[(hydroxyimino)methyl]-1-methyl-1H-pyrazol-4-yl}quinolin-4-yl]piperidin-4-amine], the half-maximal effective concentration (EC50) was less than 10 nM. `CONC(=O)Nc1ccc(C#N)cc1-c1ccc2ncc(-c3cc(F)cc(F)c3)c(N3CCC(N)CC3)c2c1` [2-189, 1-{2-[4-(4-aminopiperidin-1-yl)-3-(3,5-difluorophenyl)quinolin-6-yl]-4-cyanophenyl}-3-methoxyurea]: the EC50 was less than 10 nM.

Take `CON(C)C(=O)Nc1c(C#N)cc(F)c(F)c1-c1ccc2ncc(-c3cc(F)cc(F)c3)c(N3CCC(N)CC3)c2c1` [2-191, 1-{2-[4-(4-aminopiperidin-1-yl)-3-(3,5-difluorophenyl)quinolin-6-yl]-6-cyano-3,4-difluorophenyl}-3-methoxy-3-methylurea]: the EC50 was less than 10 nM. On to `NC1CCN(c2c(-c3cc(F)cc(F)c3)cnc3ccc(-c4cncc(Cl)c4C=NO)cc23)CC1` [2-192, 1-(6-{5-chloro-4-[(hydroxyimino)methyl]pyridin-3-yl}-3-(3,5-difluorophenyl)quinolin-4-yl)piperidin-4-amine], for which the EC50 is less than 10 nM.
